Assays:
goosegrass = assay: Test C pre-/postemergence herbicide test; assay type: in vivo, Eleusine indica; settings: Preemergence
From the text: Seeds of plant species selected from blackgrass (Alopecurus myosuroides), ryegrass, Italian (Italian ryegrass, Lolium multiflorum), wheat (winter wheat, Triticum aestivum), galium (catchweed bedstraw, Galium aparine), corn (Zea mays), crabgrass, large (large crabgrass, Digitaria sanguinalis), foxtail, giant (giant foxtail, Setaria faberii), johnsongrass (Sorghum halepense), lambsquarters (Chenopodium album), morningglory (Ipomoea coccinea), nutsedge, yellow (yellow nutsedge, Cyperus esculentus), pigweed (Amaranthus retroflexus), ragweed (common ragweed, Ambrosia elatior), soybean (Glycine max), barnyardgrass (Echinochloa crus-galli), oilseed rape (Brassica napus), waterhemp (common waterhemp, Amaranthus rudis), kochia (Kochia scoparia), oat, wild (wild oat, Avena fatua), surinam grass (Brachiaria decumbens), foxtail, green (green foxtail, Setaria viridis), goosegrass (Eleusine indica), bromegrass, downy (downy bromegrass, Bromus tectorum), nightshade (eastern black nightshade, Solanum ptycanthum), cocklebur (common cocklebur, Xanthium strumarium), cupgrass, woolly (woolly cupgrass, Eriochloa villosa), bermudagrass (Cynodon dactylon), sunflower, (common oilseed sunflower, Helianthus annuus), Russian thistle (Salsola kali) and velvetleaf (Abutilon theophrasti) were planted into a blend of loam soil and sand and treated preemergence with test chemicals formulated in a non-phytotoxic solvent mixture which included a surfactant. At the same time, plants selected from these crop and weed species and also barley (winter barley, Hordeum vulgare), […]), chickweed (common chickweed, Stellaria media), deadnettle (henbit deadnettle, Lamium amplexicaule), and canarygrass (littleseed canarygrass, Phalaris minor) were planted in pots containing Redi-Earth® planting medium (Scotts Company, 14111 Scottslawn Road, Marysville, Ohio 43041) comprising spaghnum peat moss, vermiculite, wetting agent and starter nutrients and treated with postemergence applications of test chemicals formulated in the same manner. Plants ranged in height from 2 to 18 cm (1- to 4-leaf stage) for postemergence treatments. Treated plants and controls were maintained in a greenhouse for 13 to 15 days, after which time all species were compared to controls and visually evaluated. Plant response ratings, summarized in Table C, are based on a scale of 0 to 100 where 0 is no effect and 100 is complete control. A dash (-) response means no test result.

beggarticks = assay: Test E preemergence herbicide test; assay type: in vivo, Bidens pilosa; design: key: 0 = no effect, 100 = complete control
Summary of the method: (§1)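 Test chemicals, formulated in a surfactant-containing non-phytotoxic solvent blend, are applied preemergence to seeded silt loam soil. After 21 days in the greenhouse, response is scored visually relative to controls, where 100 means complete control and 0 means no effect.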

waterhemp = assay: Test E preemergence herbicide test; assay type: in vivo, Amaranthus rudis; design: key: 0 = no effect, 100 = complete control
Summary of the method: as §1

panicum, fall = assay: Test E preemergence herbicide test; assay type: in vivo, Panicum dichotomiflorum; design: key: 0 = no effect, 100 = complete control
Summary of the method: as §1

ragweed = assay: Test E preemergence herbicide test; assay type: in vivo, Ambrosia elatior; design: key: 0 = no effect, 100 = complete control
Summary of the method: as §1

field poppy = assay: Test D pre-/postemergence herbicide test; assay type: in vivo, Papaver rhoeas; settings: Preemergence; for Plant response rating, Field Poppy: scale 0 to 100 (0 no effect, 100 complete control)
Summary of the method: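 Plants were sown in silt loam for preemergence spraying or in a peat moss/vermiculite mix for postemergence spraying at 2 to 18 cm height. Formulations used a non-phytotoxic solvent mixture with a surfactant. After 7 to 21 days, responses were scored visually from 0 (no effect) to 100 (complete control).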

Row | Compound | Plant response rating, Beggarticks (beggarticks; 31 g ai/ha) | Plant response rating, Beggarticks (beggarticks; 62 g ai/ha) | Plant response rating, Beggarticks (beggarticks; 125 g ai/ha) | Plant response rating, Beggarticks (beggarticks; 250 g ai/ha) | Plant response rating, Waterhemp (waterhemp; 31 g ai/ha) | Plant response rating, Waterhemp (waterhemp; 125 g ai/ha) | Plant response rating, Waterhemp (waterhemp; 250 g ai/ha) | Plant response rating, Panicum, Fall (panicum, fall; 31 g ai/ha) | Plant response rating, Panicum, Fall (panicum, fall; 62 g ai/ha) | Plant response rating, Panicum, Fall (panicum, fall; 250 g ai/ha) | Plant response rating, Ragweed (ragweed; 31 g ai/ha) | Plant response rating, Ragweed (ragweed; 62 g ai/ha) | Plant response rating, Ragweed (ragweed; 125 g ai/ha) | Plant response rating, Ragweed (ragweed; 250 g ai/ha) | also measured
1 | O=C1NCC(c2ccc(Cl)c(Cl)c2)C1C(=O)Nc1ccccc1F (racemic) [Compound 14] | 0 | 0 | 0 | 0 | 0 | 0 | 0 | 0 | 0 | 40 | 0 | 0 | 0 | 0 | Plant response rating, Goosegrass (goosegrass; 62 g ai/ha, scale 0 to 100): 0; Plant response rating, Goosegrass (goosegrass; 125 g ai/ha, scale 0 to 100 (0 no effect, 100 complete control)): 0; Goosegrass plant response rating (goosegrass; 31 g ai/ha, scale 0 to 100 (0 no effect, 100 complete control)): 0; Plant response rating, Beggarticks (beggarticks; 16 g ai/ha): 0; Plant response rating, Waterhemp (waterhemp; 16 g ai/ha): 0; Plant response rating, Waterhemp (waterhemp; 62 g ai/ha): 0; Plant response rating, Panicum, Fall (panicum, fall; 16 g ai/ha): 0; Plant response rating, Ragweed (ragweed; 16 g ai/ha): 0
2 | O=C1NC[C@H](c2cccc(C(F)(F)F)c2)[C@H]1C(=O)Nc1cccc(F)c1F [Compound 206] | 0 | 0 | 0 | 0 | 50 | 50 | 50 | 75 | 98 | 98 | 0 | 0 | 0 | 75 | Plant response rating, Panicum, Fall (panicum, fall; 125 g ai/ha): 98; Plant response rating, Field Poppy (field poppy; 62 g ai/ha): 90; Plant response rating, Field Poppy (field poppy; 125 g ai/ha): 90; Plant response rating, Field Poppy (field poppy; 31 g ai/ha): 80; Plant response rating (field poppy; 250 g ai/ha, Field Poppy, scale 0 to 100): 95

Source: patent publication US10294202B2, “Pyrrolidinones as herbicides” (FMC Corporation, priority 2013, dated 2019)
